For series [1] the following is noted: in words; known disadvantages; cited from earlier work.
The conditions of series [2]: in words; cited from earlier work.
Series [3] relates to Arterial blood pressure (ABP). Briefly: In vivo hypotensive activity, arterial blood pressure (ABP) in anesthetized guinea pig. To be noted: arterial blood pressure lowering (ED20, 20% reduction). Here is the method:
Pharmac., 21, 379 (1969). The trachea of anesthetized guinea pig was cannulated and the ITP recorded on a polygraph under artificial ventilation. Arterial blood pressure (ABP; measure of hypotensive activity) was also measured during the experiment. Data was obtained for both intravenous and intraduodenal administration.

Series [4] concerns arterial blood pressure / intratracheal pressure. Briefly: Separation of bronchodilator and cardiovascular effects, ratio of hypotensive ED20 / bronchodilating ED50. It is filed as in vivo, guinea pig. Here is the method:
The trachea of anesthetized guinea pig was cannulated and the ITP recorded on a polygraph under artificial ventilation. Arterial blood pressure (ABP; measure of hypotensive activity) was also measured during the experiment. Data was obtained for both intravenous and intraduodenal administration.
To assess the separation of desirable bronchodilator activity from undesirable cardiovascular (hypotensive) effect in the test compounds, the ratio of hypotensive ED20 /bronchodilating ED50 was calculated and indicated in Table 1.

Another series has as its system platelet aggregation. Conditions: in words; Chem Pharm. Bull., 25(7), 1811-1821 (1977); cited from earlier work.

The values that follow come from patent US4201860A, “Purine derivatives” (Bristol-Myers Company, priority 1979, dated 1980).

Regarding `Cn1c(=O)c2[nH]cnc2n(C)c1=O` [aminophylline], the side effects entry in series [1] is “gastric irritation and cardiovascular and central nervous system side effects”. Moreover, the solubility result in series [2] is recorded as “readily soluble”.
Consider `CC(C)COc1nc(N)c2ncn(C3CCCCC3)c2n1` [iso-C4 H9 O], for which, in series [3] (Intravenous), the “ABP lowering, ED20 (20% reduction)” value is > 3 mg/kg.
Regarding `Nc1nc(Cl)nc2c1ncn2C1C=CCCC1` (stereo not shown) [Cl], the “ABP lowering, ED20 (20% reduction)” value in series [3] (Intravenous) came to 2.5 mg/kg. The ABP/ITP in series [4] (Intravenous) came to 17.
For `CCOc1nc(N)c2ncn(C3CCCCC3)c2n1` [C2 H5 O], in that order: 2.5 mg/kg and 6.8.
With `CCOc1nc(N)c2ncn(C3C=CCCC3)c2n1` (stereo not shown) [C2 H5 O], the “ABP lowering, ED20 (20% reduction)” value in series [3] (Intraduodenal) stood at 12 mg/kg; in series [3] (Intravenous), 4.0 mg/kg. The figures for the ABP/ITP in series [4] (Intraduodenal) and in series [4] (Intravenous) were 19 and 12, respectively.
On to `CCCCCOc1nc(N)c2ncn(C3C=CCCC3)c2n1` (stereo not shown) [n-C5 H11 O], for which, in series [3] (Intravenous), the “ABP lowering, ED20 (20% reduction)” value was > 3 mg/kg.
Same read-out and setting: with `CCCCCCOc1nc(N)c2ncn(C3CCCCC3)c2n1` [n-C6 H13 O] the figure was > 3 mg/kg; with `CCCCCOc1nc(N)c2ncn(C3CCCCC3)c2n1` [n-C5 H11 O], > 3 mg/kg.
Consider `CCCOc1nc(N)c2ncn(C3C=CCCC3)c2n1` (stereo not shown) [n-C3 H7 O], for which the results for the “ABP lowering, ED20 (20% reduction)” value in series [3] (Intraduodenal) and in series [3] (Intravenous) were 2.4 mg/kg and 2.0 mg/kg, respectively. For the same compound, the figures for the ABP/ITP in series [4] (Intraduodenal) and in series [4] (Intravenous) were 2.0 and 5.9, respectively.
In the case of `CCCCOc1nc(N)c2ncn(C3C=CCCC3)c2n1` (stereo not shown) [n-C4 H9 O], the “ABP lowering, ED20 (20% reduction)” value in series [3] (Intravenous) is > 3 mg/kg. The ABP/ITP in series [4] (Intravenous) was > 4.8.
As for `Nc1nc(SC2CCCC2)nc2c1ncn2C1CCCC1`, the platelet aggregation inhibition entry with platelet aggregation is on record as “slightly effective”.
As to `CC(C)COc1nc(N)c2ncn(C3C=CCCC3)c2n1` (stereo not shown) [iso-C4 H9 O], the “ABP lowering, ED20 (20% reduction)” value in series [3] (Intravenous) was 2.4 mg/kg.
As to `CCCCCCOc1nc(N)c2ncn(C3C=CCCC3)c2n1` (stereo not shown) [n-C6 H13 O], in series [3] (Intravenous), the “ABP lowering, ED20 (20% reduction)” value turned out to be 2.7 mg/kg.
For `CCCCOc1nc(N)c2ncn(C3CCCCC3)c2n1` [n-C4 H9 O], the “ABP lowering, ED20 (20% reduction)” value in series [3] (Intraduodenal) turned out to be 8.3 mg/kg; in series [3] (Intravenous), 4.4 mg/kg. Moreover, the figures for the ABP/ITP in series [4] (Intraduodenal) and in series [4] (Intravenous) were 5.9 and 1467, respectively.
For `CCCOc1nc(N)c2ncn(C3CCCCC3)c2n1` [n-C3 H7 O], in that order: 18 mg/kg, 4.4 mg/kg, 15 and 12.
